One experiment has as its target Cannabinoid receptor 2 (Homo sapiens, UniProt P34972). As to the kind of experiment: Displacement of [3H]CP-55940 from cloned human CB2 receptor. A general note: In a radioligand displacement assay an active substance lowers the binding of a labelled ligand.
The target in a further experiment is Cannabinoid receptor 1 (Homo sapiens, UniProt P21554). As to the kind of experiment: Displacement of [3H]CP-55940 from cloned human CB1 receptor.
The target in experiment [1] is Cannabinoid receptor (Homo sapiens) (UniProt P34972+P21554). As to the kind of experiment: Selectivity for human CB2 receptor over human CB1 receptor. The format is protein assay.
Sequence of Cannabinoid receptor (Homo sapiens) (P21554 whole entry, looked up): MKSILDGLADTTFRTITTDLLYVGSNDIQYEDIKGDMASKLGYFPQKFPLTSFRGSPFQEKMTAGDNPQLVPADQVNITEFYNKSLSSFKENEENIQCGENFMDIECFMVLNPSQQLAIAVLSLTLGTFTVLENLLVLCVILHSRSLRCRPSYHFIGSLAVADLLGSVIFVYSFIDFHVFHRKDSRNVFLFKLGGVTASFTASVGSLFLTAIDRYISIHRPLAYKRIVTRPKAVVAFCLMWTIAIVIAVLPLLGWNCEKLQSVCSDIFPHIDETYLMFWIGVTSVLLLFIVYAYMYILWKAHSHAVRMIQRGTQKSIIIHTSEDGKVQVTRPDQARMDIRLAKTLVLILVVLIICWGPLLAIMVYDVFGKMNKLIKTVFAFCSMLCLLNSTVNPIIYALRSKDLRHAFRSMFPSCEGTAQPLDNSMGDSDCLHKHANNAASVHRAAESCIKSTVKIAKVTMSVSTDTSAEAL
Sequence of Cannabinoid receptor (Homo sapiens) (P34972 whole entry, looked up): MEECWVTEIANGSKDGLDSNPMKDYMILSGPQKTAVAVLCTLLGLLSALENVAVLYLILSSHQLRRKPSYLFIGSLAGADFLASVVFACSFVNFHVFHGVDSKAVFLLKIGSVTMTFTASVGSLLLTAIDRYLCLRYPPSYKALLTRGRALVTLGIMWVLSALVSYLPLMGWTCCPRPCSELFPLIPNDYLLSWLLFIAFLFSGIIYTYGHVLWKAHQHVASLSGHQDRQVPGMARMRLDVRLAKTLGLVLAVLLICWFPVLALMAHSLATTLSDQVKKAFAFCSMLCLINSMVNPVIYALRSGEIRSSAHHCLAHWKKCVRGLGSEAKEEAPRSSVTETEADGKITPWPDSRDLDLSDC

Several values for one entry are separate records, joined by “and”; a condition that tells them apart may be missing. Equal entries are not always repeated.

Sequence of Cannabinoid receptor 2 (P34972 whole entry): as the sequence (P34972 whole entry, looked up) above
Sequence of Cannabinoid receptor 1 (P21554 whole entry): as the sequence (P21554 whole entry, looked up) above

By Ki is commonly meant a measure of affinity in units of concentration, obtained from inhibition or displacement. Low values mean higher affinity, high ones lower affinity. Consider `CCCCCCC(C)(C)c1ccc(-c2ccc(OC)c(OC)c2)c(O)c1`, for which the Ki is 1700 nM on Cannabinoid receptor 2 and 1400 nM on Cannabinoid receptor 1. Besides, the Ratio Ki in experiment [1] was found to be 0.8.

Regarding `CCCCCCC(C)(C)c1ccc(-c2cc(C)ccc2C)c(O)c1`, the values for the Ki at Cannabinoid receptor 2 and at Cannabinoid receptor 1 were 6.6 nM and 4.6 nM, respectively. In addition, the Ratio Ki in experiment [1] turned out to be 0.7.

Turning to `CCCCCCC(C)(C)c1ccc(-c2cccc(OC)c2OC)c(O)c1`, the Ki on Cannabinoid receptor 2 turned out to be 7.8 nM; on Cannabinoid receptor 1, 34 nM. The Ratio Ki in experiment [1] was found to be 4.

Consider `CCCCCCC1(c2ccc(-c3cc(C)cc(C)c3)c(O)c2)CCCC1`, for which the Ki on Cannabinoid receptor 2 was determined as 5.5 nM; at Cannabinoid receptor 1 it was 2.9 nM. Further, the Ratio Ki in experiment [1] turned out to be 0.5.

In the case of `Cc1cc(C)cc(-c2ccc(C(C)(C)CCCCC(=O)O)cc2O)c1`, the Ki at Cannabinoid receptor 2 and on Cannabinoid receptor 1 was above 1000 nM throughout.

On to `CNC(=O)CCCCC(C)(C)c1ccc(-c2cc(C)cc(C)c2)c(O)c1`, for which the inhibition constant Ki on Cannabinoid receptor 2 amounted to 39 nM; on Cannabinoid receptor 1 it was 96 nM. For the same compound, in experiment [1], the Ratio Ki was found to be 2.

As for `CCCCCCC(C)(C)c1ccc(-c2cccc(C)c2C)c(O)c1`, the values for the Ki on Cannabinoid receptor 2 and on Cannabinoid receptor 1 were 20 nM and 49 nM, respectively. Besides, in experiment [1], the Ratio Ki is 2.

With `CCCCCCC(C)(C)c1ccc(-c2cc(C)cc(C)c2)c(N)c1`, the Ki on Cannabinoid receptor 2 was determined as 51 nM; on Cannabinoid receptor 1 it was 80 nM. Also, the Ratio Ki in experiment [1] stood at 2.

In the case of `CCCCCCC(C)(C)c1ccc(-c2cc(C)cc(C)c2)c(CO)c1`, the inhibition constant Ki at Cannabinoid receptor 2 was determined as 480 nM; at Cannabinoid receptor 1, 360 nM. The Ratio Ki in experiment [1] worked out at 0.8.

Regarding `CCCCCCC(C)(C)c1ccc(-c2cc(C)cc(C)c2)c(C(=O)NC(C)C)c1`, the Ki on Cannabinoid receptor 2 and at Cannabinoid receptor 1 was above 1000 nM in each case.

On to `CCCCCCC(C)(C)c1ccc(-c2cc(C)cc(C)c2)c(O)c1`, for which the inhibition constant Ki on Cannabinoid receptor 2 worked out at 2.3 nM; on Cannabinoid receptor 1, 2.7 nM. Further, the Ratio Ki in experiment [1] came to 1.

`CCCCCCC(C)(C)c1ccc(-c2cc(C)cc(C)c2)cc1` gave a Ki at Cannabinoid receptor 1 above 30000 nM. The Ratio Ki in experiment [1] was above 10.

Take `Cc1cc(C)cc(-c2ccc(C(C)(C)C(=O)O)cc2O)c1`: the Ki at Cannabinoid receptor 2 and on Cannabinoid receptor 1 was above 1000 nM in each case.

On to `CCCCCCC(C)(C)c1ccc(-c2cc(C)cc(C)c2)c(CN)c1`, for which the Ki is 380 nM at Cannabinoid receptor 2 and 1500 nM on Cannabinoid receptor 1. In experiment [1], the Ratio Ki came to 4.

With `CCCCCCC(C)(C)c1ccc(-c2ccc(N)cc2)c(O)c1`, the results for the Ki at Cannabinoid receptor 2 and on Cannabinoid receptor 1 were 1000 nM and 320 nM, respectively. The Ratio Ki in experiment [1] came to 0.3.

Take `CCCCCCC(C)(C)c1ccc(-c2cc(C)cc(C)c2)c(C(N)=O)c1`: the Ki at Cannabinoid receptor 2 is 320 nM; at Cannabinoid receptor 1, 370 nM. For the same compound, in experiment [1], the Ratio Ki was 1.

Consider `CCCCCCC(C)(C)c1ccc(-c2cccc(C#N)c2)c(O)c1`, for which the figures for the inhibition constant Ki on Cannabinoid receptor 2 and on Cannabinoid receptor 1 were 45 nM and 27 nM, respectively. Also, the Ratio Ki in experiment [1] came out at 0.6.

Turning to `COC(=O)CCCCC(C)(C)c1ccc(-c2cc(C)cc(C)c2)c(O)c1`, the Ki came out at 14 nM at Cannabinoid receptor 2 and 24 nM at Cannabinoid receptor 1. Further, the Ratio Ki in experiment [1] stood at 2.

As for `CCCCCCC(C)(C)c1ccc(-c2cc(C)cc(C)c2)c(C(=O)OC)c1`, in experiment [1], the Ratio Ki was 2 and 1.

For the compound `Cc1cc(C)cc(-c2ccc(C(C)(C)CO)cc2O)c1`, the Ki on Cannabinoid receptor 2 stood at 600 nM; at Cannabinoid receptor 1, 2200 nM. The Ratio Ki in experiment [1] was 4.

Consider `CCCCCCC(C)(C)c1ccc(-c2cc(C)cc(C)c2)c(C(=O)O)c1`, for which the Ki at Cannabinoid receptor 2 and at Cannabinoid receptor 1 was above 1000 nM each time.

Turning to `CCCCCCC(C)(C)c1ccc(-c2cccc(OC)c2)c(O)c1`, the results for the Ki on Cannabinoid receptor 2 and at Cannabinoid receptor 1 were 580 nM and 91 nM, respectively. For the same compound, the Ratio Ki in experiment [1] was found to be 0.2.

On to `COC(=O)C(C)(C)c1ccc(-c2cc(C)cc(C)c2)c(O)c1`, for which the results for the Ki at Cannabinoid receptor 2 and at Cannabinoid receptor 1 were 16 nM and 160 nM, respectively. The Ratio Ki in experiment [1] turned out to be 10.

For the compound `CCCCCCC(C)(C)c1ccc(-c2ccc(C)c(C)c2)c(O)c1`, the Ki at Cannabinoid receptor 2 is 830 nM; on Cannabinoid receptor 1, 600 nM. Moreover, the Ratio Ki in experiment [1] stood at 0.7.

Turning to `COC(=O)CCC(C)(C)c1ccc(-c2cc(C)cc(C)c2)c(O)c1`, the Ki on Cannabinoid receptor 2 came to 5.6 nM; at Cannabinoid receptor 1, 120 nM. The Ratio Ki in experiment [1] worked out at 20.

On to `CCCCCCC(C)(C)c1ccc(-c2ccccc2N)c(O)c1`, for which the inhibition constant Ki at Cannabinoid receptor 2 worked out at 17 nM; on Cannabinoid receptor 1 it was 5.2 nM. For the same compound, in experiment [1], the Ratio Ki is 0.3.

Take `Cc1cc(C)cc(-c2ccc(C(C)(C)CCCCCO)cc2O)c1`: the Ki at Cannabinoid receptor 2 was found to be 3.6 nM; on Cannabinoid receptor 1, 39 nM. Besides, the Ratio Ki in experiment [1] worked out at 10.

Consider `CCCCCCC(C)(C)c1ccc(-c2cc(C)cc(C)c2)c(CN2CCOCC2)c1`, for which the results for the Ki at Cannabinoid receptor 2 and on Cannabinoid receptor 1 were 660 nM and 3900 nM, respectively. Besides, in experiment [1], the Ratio Ki is 6.

As to `CCCCCCC(C)(C)c1ccc(-c2c(C)cccc2C)c(O)c1`, the values for the Ki on Cannabinoid receptor 2 and at Cannabinoid receptor 1 were 18 nM and 1.7 nM, respectively. In addition, the Ratio Ki in experiment [1] came out at 0.1.

Turning to `CCCCCCC(C)(C)c1ccc(-c2ccc(C#N)cc2)c(O)c1`, the Ki at Cannabinoid receptor 2 and at Cannabinoid receptor 1 was above 1000 nM throughout.

Regarding `CCCCCCC(C)(C)c1ccc(-c2cccc(C(=O)O)c2)c(O)c1`, the Ki at Cannabinoid receptor 2 and on Cannabinoid receptor 1 was above 1000 nM each time.

As for `CNC(=O)C(C)(C)c1ccc(-c2cc(C)cc(C)c2)c(O)c1`, the Ki at Cannabinoid receptor 2 and on Cannabinoid receptor 1 was above 1000 nM throughout.

Take `CCCCCCC(C)(C)c1ccc(-c2cc(C)cc(C)c2)c(OC)c1`: the Ki at Cannabinoid receptor 2 is 34 nM; at Cannabinoid receptor 1, 320 nM. Moreover, the Ratio Ki in experiment [1] amounted to 9.

Regarding `CCCCCCC(C)(C)c1ccc(-c2ccccc2OC)c(O)c1`, the Ki on Cannabinoid receptor 2 was found to be 1 nM; at Cannabinoid receptor 1, 1.7 nM. The Ratio Ki in experiment [1] worked out at 2.

As to `CCCCCCC(C)(C)c1ccc(-c2cccc(N)c2)c(O)c1`, the Ki on Cannabinoid receptor 2 worked out at 44 nM; at Cannabinoid receptor 1, 15 nM. In addition, the Ratio Ki in experiment [1] came to 0.3.

Turning to `CCCCCCC(C)(C)c1ccc(-c2cccnc2)c(O)c1`, the results for the inhibition constant (Ki) at Cannabinoid receptor 2 and on Cannabinoid receptor 1 were 20 nM and 23 nM, respectively. Moreover, the Ratio Ki in experiment [1] was found to be 1.

In the case of `CCCCCCC1(c2ccc(-c3cc(C)cc(C)c3)c(O)c2)CC1`, the Ki on Cannabinoid receptor 2 was 55 nM; at Cannabinoid receptor 1, 13 nM. For the same compound, the Ratio Ki in experiment [1] was determined as 0.2.

As to `Cc1cc(C)cc(-c2ccc(C(C)(C)CCCO)cc2O)c1`, the Ki came out at 56 nM at Cannabinoid receptor 2 and 1100 nM on Cannabinoid receptor 1. Also, the Ratio Ki in experiment [1] turned out to be 20.

With `CCCCCCC1(c2ccc(-c3cc(C)cc(C)c3)c(O)c2)CCCCC1`, the Ki at Cannabinoid receptor 2 came to 1.7 nM; on Cannabinoid receptor 1 it was 1.8 nM. For the same compound, the Ratio Ki in experiment [1] is 1.

In the case of `CCCCCCC(C)(C)c1ccc(-c2cc(C)cc(C)c2)c(COC(=O)CN2CCOCC2)c1`, the Ki on Cannabinoid receptor 2 came to 0.81 nM; on Cannabinoid receptor 1 it was 370 nM. The Ratio Ki in experiment [1] is 500.

As to `CNC(=O)CCC(C)(C)c1ccc(-c2cc(C)cc(C)c2)c(O)c1`, the Ki was determined as 140 nM on Cannabinoid receptor 2 and 840 nM on Cannabinoid receptor 1. The Ratio Ki in experiment [1] stood at 6.

(Values after ChEMBL document CHEMBL1148889, “Biaryl cannabinoid mimetics--synthesis and structure-activity relationship” (Bioorg Med Chem Lett, 2007).)
